{"source": "patent EP0994713B1", "about": "“USE OF A 7alpha-METHYL-17alpha-ETHYNYL-ESTRANE DERIVATIVE FOR THE TREATMENT OF ATHEROSCLEROSIS” (Akzo Nobel N.V., priority 1997, dated 1998)", "type_in_all_cases": "in vivo, New Zealand White rabbits", "key": {"[1]": {"system": "female ovariectomized rabbits", "assay": "Vessel wall cholesterol measurement in the aortic arch", "conditions": "for Cholesterol level in aortic arch: cholesterol diet, OVX, necropsy at 20 weeks", "method": "(§1) The model is considered relevant to the human atherosclerotic process, because the cellular events occurring during the development of the atherosclerotic lesions during the atherogenic diet are similar to those observed in different stages of atherosclerotic processes in coronary arteries.\n(§2) An experiment was performed with 7 groups of sexually mature, virgin female New Zealand White rabbits (Harlan, Zeist, The Netherlands), age 7-9 months and weighing approximately 3 kg (number of […] per group: 13-14). During the acclimatization period the rabbits were fed a diet of standard commercial rabbit chow LKK20 (Hope Farms, Woerden, The Netherlands). Three weeks prior to the start of the experiment the animals were anaesthetized and underwent bilateral ovariectomy (OVX) or were sham operated. After three weeks, at the start of the experiment, the rabbits were randomized over the treatment groups.\n(§3) The animals were randomly allocated into 7 experimental groups using a randomized block design. […] One group was fed the standard rabbit chow (LKK20). Food intake was restricted to 80 grams daily.\n(§4) Groups 1, 2 and 3 were on a daily placebo treatment. Groups 4-5 were treated with 7α-methyl-17α-ethynyl-17β-hydroxy-estra-5(10)-en-3-one (OD-14; tibolone; 6 or 2 mg daily); group 6 with 17β-estradiol (4 mg daily). Group 7 was on treatment with 17β-estradiol decanoate (150 µg in 1 ml arachis oil injected subcutaneously once a week).\n(§5) During the experiment blood samples were drawn out of the central ear artery after sedation with Hypnorm (0.1 ml i.m.) (Janssen Pharmaceutics, Beerse, Belgium) before the daily treatment, at week 4,8,12,16 and 20, to monitor the plasma cholesterol levels and to measure, at week 17, plasma estradiol levels and plasma tibolone levels. Twenty weeks after the start of the experiment animals were anaesthetized by an i.m. injection of Hypnorm (0.5 ml/kg). After blood sampling the rabbits were killed by exsanguination and the aortic arch, uterus and carotid artery removed for further analyses.\n(§6) Three weeks prior to the start of the experiment the animals were ovariectomized. At the start of the experiment the carotid artery was de-endothelialised using the air-drying technique. The normal rabbit chow was replaced by the atherogenic diet except for the control group which received during the experiment the normal rabbit chow.\n(§7) Group 5 was on treatment with 17β-estradiol decanoate (300 µg in 1 ml arachis oil injected subcutaneously once a week).\nThe amount of protein in the tissue was determined by the method of Lowry."}, "[2]": {"system": "female ovariectomized rabbits", "assay": "Uterus weight (estrogenic activity), cholesterol fed rabbit model", "conditions": "for Uterus weight per 100 grams body weight: cholesterol diet, OVX, necropsy at 20 weeks", "method": "as §1\nas §2, with “groups. In all animals de-endothelialisation of a segment of the left carotid artery was applied by using the air-drying technique (Fishman, J.A. et al., \"Endothelial regeneration in the rat carotid artery and the significance of endothelial denudation in the pathogenesis of myointimal thickening\", Lab. Invest. 1975, 32, 339-351; and Lafont, A. et al., \"Restenosis and experimental angioplasty: Intimal, medial and adventitial changes associated with constructive remodeling\", Circulation Research, 1995, 76, 996-1002)” for “groups.”\n(§8) The animals were randomly allocated into 7 experimental groups using a randomized block design. The groups were fed an atherogenic diet (commercial rabbit chow (LKK20) enriched with 0.4 grams cholesterol, 3.75 grams coconut oil and 3.75 grams peanut oil per 100 grams). One group was fed the standard rabbit chow (LKK20). Food intake was restricted to 80 grams daily.\n(§9) The treatments (Table I) were daily administered orally as a tablet, prepared as in Example 1. Groups 1, 2 and 3 were on a daily placebo treatment. Groups 4-5 were treated with 7α-methyl-17α-ethynyl-17β-hydroxy-estra-5(10)-en-3-one (OD-14; tibolone; 6 or 2 mg daily); group 6 with 17β-estradiol (4 mg daily). Group 7 was on treatment with 17β-estradiol decanoate (150 µg in 1 ml arachis oil injected subcutaneously once a week).\nas §5\n(§10) In addition to example 2 an additional experiment was performed with two lower doses of Org OD14 and a higher dose of estradiol decanoate. […] The procedures were identical to those in example 2.\nas §6\n(§11) The treatments (table II) of group 1, 2, 3 and 4 were daily administered orally as a tablet, prepared as in example 1. The doses of Org OD14 per tablet, however, were 0.6 mg and 0.15 mg respectively. Group 5 was on treatment with 17β-estradiol decanoate (300 µg in 1 ml arachis oil injected subcutaneously once a week). Twenty weeks after the start of the experiment was ended in the same manner as described in example 2.\n(§12) After 20 weeks of diet and of daily treatment, necropsy was performed to determine the accumulation of cholesterol and fatty streaks in the aortic arch and the advanced lesions in the carotid artery. […]"}, "[3]": {"system": "female ovariectomized rabbits", "assay": "Fatty streaks in the aortic arch (Sudan Red, image analysis)", "conditions": "cholesterol diet, OVX, necropsy at 20 weeks", "method": "as §1\nas §2, with “groups. In all animals de-endothelialisation of a segment of the left carotid artery was applied by using the air-drying technique (Fishman, J.A. et al., \"Endothelial regeneration in the rat carotid artery and the significance of endothelial denudation in the pathogenesis of myointimal thickening\", Lab. Invest. 1975, 32, 339-351; and Lafont, A. et al., \"Restenosis and experimental angioplasty: Intimal, medial and adventitial changes associated with constructive remodeling\", Circulation Research, 1995, 76, 996-1002)” for “groups.”\nas §8, §9, §5, §10, §6, §11\nThe aortic arch was dissected free, opened longitudinally and fixed in 2% paraformaldehyde. The tissue was then stained for lipids using 0.3% (w/v) Sudan Red. Colour photographs were taken of all segments. […]"}, "[4]": {"system": "female ovariectomized rabbits", "assay": "Plasma cholesterol levels, cholesterol fed rabbit model", "conditions": "for Mean plasma cholesterol exposure: cholesterol diet, OVX, 20 weeks; for plasma cholesterol levels (in words): Example 2: Org OD14 2 and 6 mg, E2 4 mg orally daily, E2D 150 µg s.c. weekly", "method": "as §1, §2, §3, §4, §5, §6, §7"}, "[5]": {"system": "female ovariectomized rabbits", "assay": "Intimal thickening (advanced lesions) in carotid artery after de-endothelialisation", "conditions": "for Advanced lesions in carotid artery: intimal surface: cholesterol diet, OVX, necropsy at 20 weeks; for advanced lesion formation following mechanical de-endothelisation (in words): Example 2: Org OD14 2 and 6 mg, E2 4 mg orally daily, E2D 150 µg s.c. weekly", "method": "as §1\nas §2, with “groups. In all animals de-endothelialisation of a segment of the left carotid artery was applied by using the air-drying technique (Fishman, J.A. et al., \"Endothelial regeneration in the rat carotid artery and the significance of endothelial denudation in the pathogenesis of myointimal thickening\", Lab. Invest. 1975, 32, 339-351; and Lafont, A. et al., \"Restenosis and experimental angioplasty: Intimal, medial and adventitial changes associated with constructive remodeling\", Circulation Research, 1995, 76, 996-1002)” for “groups.”\nas §8, §9\nDuring the experiment blood samples were drawn out of the central ear artery after sedation with Hypnorm (0.1 ml i.m.) (Janssen Pharmaceutics, Beerse, Belgium) before the daily treatment, at week 4,8,12,16 and 20, to monitor the plasma cholesterol levels and to measure, at week 17, plasma estradiol levels and plasma tibolone levels. Twenty weeks after the start of the experiment animals were anaesthetized by an i.m. injection of Hypnorm (0.5 ml/kg). After blood sampling the rabbits were killed by exsanguination and the aortic arch, uterus and carotid artery removed for further analyses. […]\nThe left (airdried) carotid artery was dissected and fixed in 2% paraformaldehyde containing 6.8% glucose. The right carotid artery was used as comparison. After fixation the tissue was divided in blocks with a length of 2 mm and embedded in paraffin (Paraplast plus®, Sherwood Medical Co, St. Louis, USA) using an automated tissue processor (Hypercenter XP, Shandon).\nTo measure intimal thickening (using image analysis) a specific staining method and a belonging image analysis application have been developed.\nMeasurements were performed on 2 µm transverse sections which were treated with elastase (Serva Feinbiochemica Gmbh, Heidelberg, Germany) prior to elastin staining with Lawson solution (Boom, Meppel, the Netherlands) and light green (Sigma). Subsequently sections were airdried and mounted in Pertex (Leica Gmbh, Nussloch, Germany).\nFor morphological study both methylene blue/Azur II and hemotoxylin/eosin stained (2 µm) transverse sections were used. Smooth muscle cells and macrophages were detected with respectively α-actin antibodies (Sigma) and anti-macrophage antibodies (RAM11, DAKO, Glostrup, Denmark). […]"}, "[6]": {"system": "female ovariectomized rabbits", "assay": "Overall atherosclerotic lesion formation, cholesterol fed rabbit model", "conditions": "Example 3: Org OD14 0.6 mg orally daily; estradiol decanoate 300 µg s.c. weekly", "method": "as §1, §10, §6, §11\nIn example 3 we tested Org OD14 at two lower doses (0.6 and 0.15 mg orally once daily) and estradiol decanoate at a higher dose (300 µg s.c. once weekly). […]"}, "[7]": {"assay": "Body weight at necropsy, cholesterol fed rabbit model", "conditions": "cholesterol diet, OVX, necropsy at 20 weeks", "method": "as §1\nas §2, with “groups. In all animals de-endothelialisation of a segment of the left carotid artery was applied by using the air-drying technique (Fishman, J.A. et al., \"Endothelial regeneration in the rat carotid artery and the significance of endothelial denudation in the pathogenesis of myointimal thickening\", Lab. Invest. 1975, 32, 339-351; and Lafont, A. et al., \"Restenosis and experimental angioplasty: Intimal, medial and adventitial changes associated with constructive remodeling\", Circulation Research, 1995, 76, 996-1002)” for “groups.”\nas §8, §9, §5, §10, §6, §11, §12"}, "[8]": {"conditions": "Example 2, Group 6: 4 mg orally daily"}, "[9]": {"conditions": "Example 2, Group 7: 150 µg subcutaneously once a week"}, "[10]": {"conditions": "Example 3: 300 µg subcutaneously once weekly"}}}
{"smiles": "C[C@]12CC[C@@H]3c4ccc(O)cc4CC[C@H]3[C@@H]1CCC2O", "note": "(stereo partly drawn) [Estradiol, estra-1,3,5 (10)-triene-3,17-diol, reference compound]", "values": [{"measurement": "Cholesterol level in aortic arch", "setting": "[1]; [8]", "result": "521 ± 99", "unit": "nmol/mg protein"}, {"measurement": "cholesterol accumulation in the aortic arch (in words)", "setting": "[1]; Example 2: Org OD14 2 and 6 mg, E2 4 mg orally daily", "result": "did not lead to a reduction in cholesterol accumulation"}, {"measurement": "Uterus weight per 100 grams body weight", "setting": "[2]; [8]", "result": "0.31 ±0.02", "unit": "per 100 grams body weight"}, {"measurement": "Fatty streak in aortic arch", "setting": "[3]; [8]", "result": "25.5 ± 5.2 % of arcus covered"}, {"measurement": "Mean plasma cholesterol exposure", "setting": "[4]; [8]", "result": "27.7 ± 2.8", "unit": "mmol/L/day"}, {"measurement": "plasma cholesterol levels (in words)", "setting": "[4]", "result": "did not affect plasma cholesterol levels"}, {"measurement": "Advanced lesions in carotid artery: intimal surface", "setting": "[5]; [8]", "result": "0.30 ± 0.06", "unit": "mm^2"}, {"measurement": "advanced lesion formation following mechanical de-endothelisation (in words)", "setting": "[5]", "result": "had no effect on advanced lesion formation"}]}
{"smiles": "CCCCCCCCCC(=O)O[C@H]1CC[C@H]2[C@@H]3CCc4cc(O)ccc4[C@H]3CC[C@]12C", "note": "[Estradiol decanoate, 17β-estradiol decanoate, reference compound]", "values": [{"measurement": "Cholesterol level in aortic arch", "setting": "[1]; [9]", "result": "318 ± 58", "unit": "nmol/mg protein"}, {"measurement": "reduction of cholesterol accumulation in the aortic arch", "setting": "[1]; Example 2: 150 µg s.c. once a week, versus placebo", "result": 46, "unit": "%"}, {"measurement": "Cholesterol level in aortic arch", "setting": "[1]; [10]", "result": "225 ± 69", "unit": "nmol/mg protein"}, {"measurement": "atherosclerotic lesion formation (in words)", "setting": "[6]", "result": "still only partially inhibited"}, {"measurement": "Uterus weight per 100 grams body weight", "setting": "[2]; [9]", "result": "0.37 ±0.04", "unit": "per 100 grams body weight"}, {"measurement": "increase of uterus weight", "setting": "[2]; Example 3, text: estradiol decanoate 300 µg s.c. once weekly, versus placebo 0.054", "result": 835, "unit": "%"}, {"measurement": "uterus weight", "setting": "[2]; Example 3, text: estradiol decanoate 300 µg s.c. once weekly, placebo 0.054", "result": "0.505 grams per 100 grams body weigh"}, {"measurement": "Uterus weight per 100 grams body weight", "setting": "[2]; [10]", "result": "0.505 ±0.075", "unit": "per 100 grams body weight"}, {"measurement": "Fatty streak in aortic arch", "setting": "[3]; [9]", "result": "28.1 ± 4.1 % of arcus covered"}, {"measurement": "Fatty streak in aortic arch", "setting": "[3]; [10]", "result": "14.2 ± 3.2 % of arcus covered"}, {"measurement": "Body weight", "setting": "[7]; [9]", "result": "2973 ± 52", "unit": "grams"}, {"measurement": "Body weight", "setting": "[7]; [10]", "result": "3093 ± 60", "unit": "grams"}, {"measurement": "Mean plasma cholesterol exposure", "setting": "[4]; [9]", "result": "30.0 ± 3.7", "unit": "mmol/L/day"}, {"measurement": "plasma cholesterol levels (in words)", "setting": "[4]", "result": "did not affect plasma cholesterol levels"}, {"measurement": "Mean plasma cholesterol exposure", "setting": "[4]; [10]", "result": "23.0 ± 2.0", "unit": "mmol/L/day"}, {"measurement": "Advanced lesions in carotid artery: intimal surface", "setting": "[5]; [9]", "result": "0.23 ± 0.06 * mm^2"}, {"measurement": "Histology of the lesions", "setting": "[5]; Example 2, carotid artery, placebo on cholesterol diet: smooth muscle cells and foam cells", "result": "the lesions still consisted of smooth muscle cells and foam cells"}, {"measurement": "advanced lesion formation following mechanical de-endothelisation (in words)", "setting": "[5]", "result": "reduced advanced lesion formation"}, {"measurement": "Advanced lesions in carotid artery: intimal surface", "setting": "[5]; [10]", "result": "0.18 ± 0.02 * mm^2"}]}
